Results taken from patent US20100031388A1, “MUTANT HISTIDINE KINASE THAT CONFERS SPONTANEOUS NODULATION IN PLANTS” (Plant Biosciences Ltd., priority 2006, published 2010).

Key:
[1] = system: Lrr5, Lhk1 and Nin transcripts; experiment: Quantitative RT-PCR of Lrr5, Lhk1 and Nin transcripts in roots and root explants in response to cytokinin; format: in vivo, Lotus japonicus
Experimental: Steady state levels of Lhk1 and ARR transcripts were determined in roots and other plant organs by quantitative RT-PCR analysis according to the following protocol.
Wild type and snf2 seeds were surface sterilised and germinated as described previously (Handberg, and Stougaard, (1992) Plant J. 2: 487). Plants were grown with 16 h light/8 h dark period at 21° C. Total RNA was isolated from roots, nodules, leaves, flowers and pods of inoculated wild type L. japonicus. mRNA was extracted from roots of wild type and snf2 plants grown for 2 weeks on ¼ B&D (Broughton and Dilworth, (1971) Biochem. J. 125: 1075) supplemented with 0.5 μM potassium nitrate. Roots were treated with 10 μM BAP for three time points, 30 minutes, 3 hours and 8 hours. Untreated roots were taken as control. mRNA was also extracted from root segments of wild type and snf2 plants grown for 10 days on hormone-free B5 salt medium and B5 salt medium supplemented with 0.5 μg/ml of BAP. Dynabeads mRNA direct kit (Invitrogen) was used for the extraction of mRNA.
First strand cDNA was prepared using reverse transcriptase (Fermentas). Quantitative PCR was performed on a Light Cycler (Roche Molecular Biochemicals) using Fast Start DNA master SYBR green kit (Roche) to amplify the target transcripts from 5 μl diluted cDNA. Four house keeping genes (Czechowski et al., (2005) Genome analysis 139: 5) were used to determine the relative expression of target genes (see below). For each treatment, normalized relative ratios of the target genes and the four independent house keeping genes have been calculated using the Relative Quantification Software (Quant) from Roche. The geometric mean (Vandesompele et al., (2002)Genome Biology 3:1) of the relative expression ratios for the three biological and technical replicates and the corresponding 95% intervals of confidence have been calculated as described previously (Radutoiu et al., (2003) Nature 425: 585).

[2] = system: L. japonicus wild type and snf2 plants; conditions: increasing concentrations of BAP, 3 weeks (FIG. 8)
Experimental: Accordingly, wild type and snf2 plants were grown on ½ B5 salt with and without increasing concentrations of BAP for 3 weeks. Shoot and root length of at least 60 plants for each treatment was measured.

[3] = system: wild type LHK1 cytokinin receptor; conditions: liquid culture, LHK1 expressing cells (FIG. 5B)
From the text: (§1) In this assay cytokinin induction can be determined without interference from endogenous cytokinin levels, cytokinin penetration and interfering metabolic pathways present in plants. The phosphorelay exploited in this assay is normally involved in regulating bacterial extracellular polysaccharide synthesis through activation of the cps operon in response to a sensor (RcsC), which has a domain structure similar to plant cytokinin receptors. Functional expression of a cytokinin receptor in an E. coli strain deleted of RcsC sensor allows cytokinin perception to be read out as β-galactosidase activity from the expression of a cps::lacZ fusion.
(§2) Accordingly the Lhk1 cDNAs, corresponding to wild type and snf2 allele were cloned into the pIN-III expression vector and transformed into the sensor-negative SRC122 (ΔRcsC) strain harbouring the cps::lacZ gene. The transformants were grown overnight in liquid […] and then spotted on LB plates, supplemented with and without t-zeatin, kinetin, BAP (200 μM) each and thidiazuron (50 μM). The LB media was further supplemented with X-Gal (5-bromo-4-chloro-3-indolyl-β-D-[…]), a β-galactosidase substrate. After 40 hours incubation at room temperature (25° C.), the plates were photographed. E coli strain (SRC122) was taken as a negative control.

[4] = system: mutant LHK1 cytokinin receptor (snf2 allele); conditions: liquid culture, snf2 allele expressing cells (FIG. 5B)
From the text: as §1, §2

[5] = system: cps::lacZ reporter; experiment: Two-component phosphorelay assay in E. coli SRC122 (cps::lacZ), receptor activity read out as β-galactosidase; format: cell-based; conditions: LB plates with/without t-zeatin, kinetin, BAP (200 μM) or thidiazuron (50 μM), 40 hours, 25° C.
From the text: as §1, §2

[6] = system: wild type Lotus roots; experiment: Spontaneous nodulation of wild type hairy roots transformed via A. rhizogenes, scored without rhizobia; format: in vivo, Lotus japonicus; conditions: scored in absence of M. loti
Experimental: Transgenic expression of the wild type or mutant snf2 allele in wild type Lotus roots was performed in order to confirm in planta the genetic basis for the spontaneous nodulation phenotype. A genomic fragment of 12.7 kb from the BAC clone 1 K18 was used to clone out the wild type Lhk1 gene including a 2.2 kb promoter region, and its Snf2 allele comprising the C→T transition, which were then sub-cloned into the pIV10 plasmid. The constructs were integrated into A. rhizogenes strain AR12 by tri-parental mating. Transformation was performed as described by Stougaard (1995) Method Mol Biology 49: Plant Gene Transfer and Expression Protocols, p. 49-63, and included transformation with an empty vector control.

## c1ccc(CNc2ncnc3nc[nH]c23)cc1 [BAP, 6-benzylaminopurine]
[1]; snf2 and wild-type root explants on B5 medium, 0.5 μg/ml BAP, 10 days (FIG. 7B)
  increase of Lrr5 transcript level: two to three-fold

## C/C(=C\CNc1ncnc2nc[nH]c12)CO [Cytokinin, Trans-zeatin]
[1]; direct treatment of intact snf2 and wild-type roots, 10 μM BAP, 30 minutes, 3 hours, 8 hours (FIG. 7C)
  Lrr5 transcript level: increased
[1]; intact wild type and snf2 roots (FIG. 7D)
  Lhk1 gene transcripts: increase rapidly
[1]; intact wild type and snf2 roots (FIG. 7E)
  Nin gene transcription: transcriptionally upregulated
[2]
  sensitivity of shoot and root growth of snf2 plants compared to wild type: hypersensitive
[3]
  induction of β-galactosidase activity on cytokinin addition: two fold induction
[4]
  increase of β-galactosidase activity on cytokinin addition: only a marginal increase

## Wild type Lhk1 allele: Wild type Lotus histidine kinase gene Lhk1 (SEQ ID NO:1, 2) encoding LHK1 cytokinin receptor protein (SEQ ID NO:3)
[5]
  β-galactosidase activity, plate assay (X-Gal): induced β-galactosidase activity in a cytokinin-dependent fashion
[6]
  nodule number/nodulated plant: 0
  nodule number/plant: 0
[6]; (nodulated/total plants)
  % spontaneous nodulation: 0 (0/41) %
